Measurements reported in ChEMBL document CHEMBL3638917, “Triazine derivatives” (2015).

Target: T1, cAMP and cAMP-inhibited cGMP 3',5'-cyclic phosphodiesterase 10A (Rattus norvegicus, UniProt Q9QYJ6)
T1 sequence (Q9QYJ6 whole entry): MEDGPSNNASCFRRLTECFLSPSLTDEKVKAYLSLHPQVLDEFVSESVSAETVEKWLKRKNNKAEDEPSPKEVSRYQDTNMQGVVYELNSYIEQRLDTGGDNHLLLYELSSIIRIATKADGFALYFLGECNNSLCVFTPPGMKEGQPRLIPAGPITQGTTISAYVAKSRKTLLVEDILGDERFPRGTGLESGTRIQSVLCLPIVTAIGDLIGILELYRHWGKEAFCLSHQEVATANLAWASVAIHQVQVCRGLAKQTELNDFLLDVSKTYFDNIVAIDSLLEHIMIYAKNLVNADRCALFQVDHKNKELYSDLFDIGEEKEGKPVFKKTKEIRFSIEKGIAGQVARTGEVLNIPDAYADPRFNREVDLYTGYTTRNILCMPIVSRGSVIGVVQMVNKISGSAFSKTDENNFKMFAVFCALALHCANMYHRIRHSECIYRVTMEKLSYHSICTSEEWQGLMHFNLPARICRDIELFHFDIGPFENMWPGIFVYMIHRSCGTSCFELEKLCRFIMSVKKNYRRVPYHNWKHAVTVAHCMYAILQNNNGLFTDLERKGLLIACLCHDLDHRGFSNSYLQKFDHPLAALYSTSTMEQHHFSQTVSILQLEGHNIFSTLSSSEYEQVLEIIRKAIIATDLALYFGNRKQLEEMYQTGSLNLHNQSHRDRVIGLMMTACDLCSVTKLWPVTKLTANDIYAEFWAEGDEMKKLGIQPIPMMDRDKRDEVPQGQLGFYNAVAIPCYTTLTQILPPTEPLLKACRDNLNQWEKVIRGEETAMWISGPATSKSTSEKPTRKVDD
Experiment: The products of Examples 1-175 were tested in the assay described below.PDE10 activity was measured using a scintillation assay (SPA-based method) similar to that previously described by Seeger, T. F. et al., Brain Research 985 (2003) 113-126. The compounds' relative activity as PDE10 inhibitors was investigated by assaying a fixed amount of enzyme in the presence of the test compound and low substrate concentration (cAMP) such that an IC50 could be determined. […] The assay is performed in a 384-well format with 50 uL assay buffer (50 mM TRIS pH 7.5; 1.3 mM MgCl2; 0.01% Brij) containing enough PDE10.

Question: `CCc1nn(C)c2c1CN(c1ncnn3c(C)nc(-c4cccc(OC)c4)c13)CC2` was tested. Which IC50 did it give?
Answer: The IC50 was 2.7 nM.
